Drawing on patent publication US9604998B2, “Inhibitors of the renal outer medullary potassium channel” (MERCK SHARP & DOHME CORP., priority 2013, dated 2017), this text covers IC50 for 29 compounds.

By pIC50 is commonly meant the negative decadic logarithm of the IC50, by convention in mol/L.

Experiment [1] addresses hROMK (hKir1.1) (Homo sapiens (Human), UniProt P48048). Description: Thallium Flux Assay (ROMK channel functional thallium flux, FLIPR-Tetra). The class given is cell-based. The note with it: HEK293 cells stably expressing hROMK (hKir1.1); read-out: Thallium Flux IC50. How it is done: HEK293 cells stably expressing hROMK (hKir1.1) were grown at 37° C. in a 10% CO2 humidified incubator in complete growth media: Dulbecco's Modified Eagle Medium supplemented with non-essential amino acids, Penicillin/Streptomycin/Glutamine, G418 and FBS. At >80% confluency, aspirate the media from the flask and rinse with 10 mL Calcium/Magnesium-free PBS. […] To dislodge the cell, gently bang the side of the flask with your hand. Triturate the cells completely and then transfer the cells to 25 mL complete media. Centrifuge at 1,500 rpm for 6 min followed by resuspension in complete growth media and determine cell concentration.
Compound Buffer (per microplate): 20 mL Probenecid/Assay Buffer; 0.3 mM ouabain (10 mM ouabain in water can be stored in amber bottle/aluminum foil at room temperature); Test compound
Stimulant Buffer (prepared at 5× final concentration in 1× FluxOR™ Chloride-Free Buffer): 7.5 mM Thallium sulfate and […] (to give a final assay concentration of 3 mM Thallium/0.3 mM Potassium). Store at 4° C. when not in use. If kept sterile, this solution is good for months.
The ROMK channel functional thallium flux assay is performed in 384 wells, using the FLIPR-Tetra instrument. HEK-hKir1.1 cells are seeded in Poly-D-Lysine microplates and kept in a 37° C.-10% CO2 incubator overnight. On the day of the experiment, the growth media is replaced with the FluxOR™ reagent loading buffer and incubated, protected from light, at ambient temperature (23-25° C.) for 90 min. The loading buffer is replaced with assay buffer±test compound followed by 30 min incubation at ambient temperature, where the Thallium/Potassium stimulant is added to the microplate.
1. Seed HEK-hKir1.1 cells (50 μl at 20,000 cells/well) in 384-well PDL coated Microplates
2. Allow cells to adhere overnight in humidified 37° C./10% CO2 incubator
3. Completely remove cell growth media from microplate and replace with 25 μl loading buffer
4. Incubate Microplate at room temperature, protected form light, for 90 min
5. Remove loading buffer and replace with 25 μl 1× Assay Buffer±test compound.
6. Incubate microplate at room temperature, protected from light, for 30 min
7. […] Excitation=400 nm, Emission=460 & 580 nm. Collect data for ˜10 min.
The fluorescence intensity of wells containing 3 μM of a standard control ROMK inhibitor of the present invention is used to define the ROMK-sensitive component of thallium flux. Fluorescence in the presence of test compounds is normalized to control values to provide % fluorescence change.

The target of experiment [2] is Kir1.1 (ROMK1) (Homo sapiens (Human), UniProt P48048). The experiment is described as follows: Electrophysiology Assay (whole cell voltage clamp, IonWorks Quattro). Type of experiment: cell-based. The note with it: Chinese hamster ovary cells stably expressing Kir1.1; block during voltage step to 0 mV; read-out: Electrophysiology IC50. How it is done: Chinese hamster ovary cells stably expressing Kir1.1 channels were maintained in T-75 flasks in cell culture media in a humidified 10% CO2 incubator at 37° C. Prior to an experiment, Kir1.1 expression was induced by overnight incubation with 1 mM sodium butyrate. […] After centrifugation, the cell pellet was resuspended in approximately 4.0 mL of bath solution and placed in the IonWorks instrument. The intracellular solution consisted of (in mM): 80 K gluconate, 40 KCl, 20 KF, 3.2 MgCl2, 3 EGTA, 5 Hepes, pH 7.4. Electrical access to the cytoplasm was achieved by perforation in 0.13 mg/mL amphotericin B for 4 min. […] Voltage protocols and current recordings were performed using the IonWorks HT software/hardware system. Currents were sampled at 1 kHz. No correction for liquid junction potentials was used. The test pulse, consisting of a 100 ms step to 0 mV from a holding potential of −70 mV, followed by a 100 ms voltage ramp from −70 mV to +70 mV, was applied before and after a 6 min compound incubation period. Test compounds were prepared by diluting DMSO stock solutions into the bath solution at 3× the final concentration and placed in the instrument in 96-well polypropylene plates. Current amplitudes were measured using the IonWorks software.
For orientation: In patch-clamp work, channel activity is measured electrically.

Structures are written as SMILES. pIC50: −log10 of the molar value.

Sequence of hROMK (hKir1.1) (P48048 whole entry): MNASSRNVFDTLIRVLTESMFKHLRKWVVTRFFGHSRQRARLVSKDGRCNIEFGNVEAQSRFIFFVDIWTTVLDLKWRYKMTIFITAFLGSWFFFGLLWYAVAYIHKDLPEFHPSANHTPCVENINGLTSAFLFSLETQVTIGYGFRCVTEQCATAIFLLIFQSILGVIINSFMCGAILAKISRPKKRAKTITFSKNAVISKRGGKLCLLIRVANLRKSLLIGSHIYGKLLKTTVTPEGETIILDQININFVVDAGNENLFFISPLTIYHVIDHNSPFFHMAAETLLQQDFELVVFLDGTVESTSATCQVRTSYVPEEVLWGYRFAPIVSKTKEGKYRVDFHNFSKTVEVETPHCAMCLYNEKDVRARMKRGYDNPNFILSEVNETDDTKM
Sequence of Kir1.1 (ROMK1) (P48048 whole entry, species assumed): as the sequence (P48048 whole entry) above

Take `Cc1c([C@@H]2CN3CCN(CCc4ccc5c(c4)COC5=O)C[C@H]3CO2)ccc2c1COC2=O` [Example 64]: the pIC50 in experiment [1] and in experiment [2] was 7.40 in each case.
Consider `COc1c([C@@H]2CN3CCN(C[C@@H](O)c4ccc5c(c4C)COC5=O)C[C@H]3CO2)ccc(C#N)c1F` [Example 31, (3R,9aS)-3-(4-cyano-3-fluoro-2-methoxyphenyl)-8-[(2S)-2-hydroxy-2-(4-methyl-1-oxo-1,3-dihydro-2-benzofuran-5-yl)ethyl]octahydropyrazino[2,1-c][1,4]oxazin-8-ium chloride], for which the pIC50 in experiment [1] is 6.19.
As to `COc1cc(C(O)CN2CCN3C[C@@H](c4ccc5c(c4C)COC5=O)OC[C@@H]3C2)c(F)cc1C#N` (stereo partly drawn) [Example 15, (3R,9aS)-8-[2-(4-cyano-2-fluoro-5-methoxyphenyl)-2-hydroxyethyl]-3-(4-methyl-1-oxo-1,3-dihydro-2-benzofuran-5-yl)octahydropyrazino[2,1-c][1,4]oxazin-5-ium chloride], the negative logarithm of the IC50 (pIC50) in experiment [1] is 6.17; in experiment [2], 6.54.
Consider `COc1c(CCN2CCN3C[C@H](c4ccc5c(c4C)COC5=O)OC[C@H]3C2)ccc(C#N)c1F` [Example 94], for which the negative-log IC50 (pIC50) in experiment [1] was 6.62; in experiment [2], 6.85.
Turning to `Cc1c([C@@H]2CN3CCN(CCc4ccc5c(c4)CC(C)OC5=O)C[C@H]3CO2)ccc2c1COC2=O` (stereo partly shown) [Example 81], the pIC50 in experiment [1] was 7.05; in experiment [2], 6.92.
For the compound `Cc1c(CCN2CCN3C[C@@H](c4ccc5c(c4C)COC5=O)OC[C@@H]3C2)ccc2c1COC2=O` [Example 57, 4-Methyl-5-((3R,9aS)-8-(2-(4-methyl-1-oxo-1,3-dihydroisobenzofuran-5-yl)ethyl)octahydropyrazino[2,1-c][1,4]oxazin-3-yl)isobenzofuran-1(3H)-one], the negative logarithm of the IC50 (pIC50) is 7.52 in experiment [1] and 7.05 in experiment [2].
Regarding `Cc1c(CCN2CCN3C[C@H](c4ccc5c(c4Cl)COC5=O)OC[C@@H]3C2)ccc2c1COC2=O` [Example 89], the figures for the pIC50 in experiment [1] and in experiment [2] were 6.70 and 7.00, respectively.
For `COc1c(CCN2CCN3C[C@H](c4ccc5c(c4C)COC5=O)OC[C@@H]3C2)ccc(C#N)c1F` [Example 96], the pIC50 is 6.68 in experiment [1] and 7.10 in experiment [2].
For `COc1cc(CCN2CCN3C[C@H](c4ccc5c(c4C)COC5=O)OC[C@H]3C2)ccc1C#N` [Example 61], the negative-log IC50 (pIC50) was 6.48 in experiment [1] and 6.92 in experiment [2].
As to `Cc1c([C@H](O)CN2CCN3C[C@@H](c4ccc5c(c4)COC5=O)OC[C@@H]3C2)ccc2c1COC2=O` [Example 12, (3R,9aS)-8-[(2S)-2-hydroxy-2-(4-methyl-1-oxo-1,3-dihydro-2-benzofuran-5-yl)ethyl]-3-(1-oxo-1,3-dihydro-2-benzofuran-5-yl)octahydropyrazino[2,1-c][1,4]oxazin-5-ium chloride], the pIC50 in experiment [1] was 6.72; in experiment [2], 7.52.
Regarding `COc1cc([C@H]2CN3CCN(CCc4ccc5c(c4C)COC5=O)C[C@@H]3CO2)ccc1C#N` [Example 75], the results for the pIC50 in experiment [1] and in experiment [2] were 6.96 and 7.15, respectively.
Regarding `CCOc1cc(CCN2CCN3C[C@@H](c4ccc5c(c4C)COC5=O)OC[C@@H]3C2)ccc1C#N` [Example 83], the pIC50 in experiment [1] was 6.92; in experiment [2], 7.05.
As to `Cc1c([C@@H]2CN3CCN(C[C@H](O)c4ccc5c(c4C)COC5=O)C[C@H]3CN2)ccc(F)c1C#N` [Example 102, 6-fluoro-3-((3R,9aR)-8-((R)-2-hydroxy-2-(4-methyl-1-oxo-1,3-dihydroisobenzofuran-5-yl)ethyl)octahydro-1H-pyrazino[1,2-a]pyrazin-3-yl)-2-methylbenzonitrile], in experiment [1], the pIC50 was 6.68.
For the compound `COc1cc(CCN2CCN3C[C@@H](c4ccc5c(c4)C[C@H](C)OC5=O)OC[C@@H]3C2)ccc1C#N` [Example 85], the pIC50 in experiment [2] was 7.05.
Turning to `COc1cc(C(O)CN2CCN3C[C@@H](c4ccc5c(c4C)COC5=O)OC[C@@H]3C2)c(Cl)cc1C#N` (stereo partly drawn) [Example 9, (3R,9aS)-8-[2-(2-chloro-4-cyano-5-methoxyphenyl)-2-hydroxyethyl]-3-(4-methyl-1-oxo-1,3-dihydro-2-benzofuran-5-yl)octahydropyrazino[2,1-c][1,4]oxazin-5-ium chloride], the pIC50 in experiment [1] is 6.37.
For `Cc1c([C@@H]2CN3CCN(CC(O)c4cccc(-n5cnnn5)c4)C[C@@H]3CO2)ccc(F)c1C#N` (single isomer, unassigned) [Example 23], the negative-log IC50 (pIC50) in experiment [1] is 6.49.
As for `O=C1OCc2cc(CCN3CCN4C[C@@H](c5ccc6c(c5)COC6=O)OC[C@@H]4C3)ccc21` [Example 62], in experiment [2], the pIC50 was 7.40.
As to `Cc1c([C@H]2CN3CCN(CCc4ccc5c(c4C)COC5=O)C[C@@H]3CO2)ccc(F)c1C#N` [Example 77], in experiment [2], the pIC50 was 7.15.
Same read-out and setting: next, `COc1cc(CCN2CCN3C[C@@H](c4ccc5c(c4)COC5=O)OC[C@@H]3C2)ccc1C#N` [Example 58]: 6.92; `Cc1c([C@@H]2CN3CCN(CCc4ccc5c(c4C)COC5=O)C[C@@H]3CO2)ccc(F)c1C#N` [Example 78]: 7.15; `Cc1c(CCN2CCN3C[C@H](c4ccc5c(c4C)COC5=O)OC[C@H]3C2)ccc2c1COC2=O` [Example 67]: 7.15.
For the compound `Cc1c([C@@H]2CN3CCN(CC4OCCc5c4ccc4c5COC4=O)C[C@H]3CO2)ccc2c1COC2=O` (stereo partly drawn) [Example 109, 6-{[(3R,9aS)-3-(4-methyl-1-oxo-1,3-dihydro-2-benzofuran-5-yl)hexahydropyrazino[2,1-c][1,4]oxazin-8(1H)-yl]methyl}-8,9-dihydro-1H-furo[3,4-f]isochromen-3(6H)-one], in experiment [2], the pIC50 is 7.30.
In the case of `COc1cc(CCN2CCN3C[C@H](c4ccc5c(c4)COC5=O)OC[C@@H]3C2)ccc1C#N` [Example 59], the pIC50 in experiment [2] is 7.40.
Take `COc1cc(F)c(CCN2CCN3C[C@@H](c4ccc5c(c4C)COC5=O)OC[C@@H]3C2)cc1C#N` [Example 84]: the pIC50 in experiment [2] was 7.30.
As for `Cc1nc(-n2cnnn2)ccc1C(O)CN1CCN2C[C@@H](c3ccc(F)c(C#N)c3C)OC[C@@H]2C1` (single isomer, unassigned) [Example 21], the pIC50 in experiment [1] was 6.59.
Turning to `COc1cc([C@H]2CN3CCN(CCc4ccc5c(c4C)COC5=O)C[C@H]3CO2)ccc1C#N` [Example 74], the pIC50 in experiment [2] is 7.10.
With `Cc1c(CCN2CCN3C[C@@H](c4ccc5c(c4C)COC5=O)OC[C@H]3C2)ccc2c1COC2=O` [Example 68], the pIC50 in experiment [2] was 6.85.
In the case of `COc1c([C@@H]2CN3CCN(C[C@H](O)c4ccc5c(c4C)COC5=O)C[C@H]3CO2)ccc(C#N)c1F` [Example 30, (3R,9aS)-3-(4-cyano-3-fluoro-2-methoxyphenyl)-8-[(2R)-2-hydroxy-2-(4-methyl-1-oxo-1,3-dihydro-2-benzofuran-5-yl)ethyl]octahydropyrazino[2,1-c][1,4]oxazin-8-ium chloride], the pIC50 in experiment [1] was 6.64.
Regarding `COc1cc(CCN2CCN3C[C@H](c4ccc5c(c4C)COC5=O)OC[C@@H]3C2)ccc1C#N` [Example 60], the pIC50 in experiment [2] was 6.74.
